Values after ≈ are worked out from the molar mass of the structure shown. Where two headings read alike, the source gives them in different places.
Legend:
[1] = system: HepG2 (human hepatocellular carcinoma); assay: MTT assay, inhibition of HepG2 cell proliferation; assay type: cell-based
Procedure: Preliminary in vitro screening results of the title compounds for antitumor activity against HepG2 (human hepatocellular carcinoma) and human normal hepatocytes (LO2) were determined by MTT assay (thiazolyl blue salt colorimetry) (see Figure 1 and Figure 2). […]
All analyses were carried out with SPSS 19.0 software (SPSS, Chicago, IL, USA). […]
The measurement data material of the experimental were described by x±s. Two samples were compared with the t test. The difference was significant statistically (p < 0.05).
MTT assay detect cell proliferation
MTT assay was used to determine the inhibitory effect on the proliferation of HepG2 cells of levopimaric acid. Compound 4 and levopimaric acid were combined with three groups below. The cells in the logarithmic growth phase were inoculated into 96-well culture plates at 3.5×10^3 cells/well, 0.2 ml per well, and incubated for 72 h with different concentrations of levopimaric acid. Then, we continually cultured it for 4 h after mixing fresh MTT working solution 20 μL (final concentration was 0.5 mg/mL), and carefully discarded the supernatant, added […] of DMSO per well and shook up. The absorbance (A) at the wavelength of 490 nm was measured by a microplate reader. The cell proliferation inhibition rate was calculated according to the following formula=[(negative control group A value - blank group A value) - (experimental group A value - blank group A value)]/ (Negative control group A value - blank group A value) × 100%.
Table S1 Compound 4 and levopimaric acid anti-HepG2 by single drug.
Concentration 4 Concentration Levopimaric acid
/μM Inhibitory rate/% Inhibitory rate/% /μM […]
Detection of cell proliferation by MTT
MTT assay was used to determine the inhibitory effect of the sample on the proliferation of HepG2 cells. The tumor cells of logarithmic growth stage were inoculated with 3.5×10^3/well in 96 well culture plate. 0.2 ml/pore system was cultured for 72 h with different concentrations of samples. Then 20 μL (final concentration 0.5 mg/mL) of MTT were added to each pore for 4 h. The supernatant was carefully adsorbed, and 0.15 mL DMSO was added to each pore, and oscillatory mixing was carried out. The absorbance (A) value at 490 nm wavelength was measured by enzyme labeling instrument.
The inhibition rate of cell proliferation was calculated as follows: [(A value of negative control group - A value of blank group) - (A value of experimental group A value of blank group)]/(negative pair […]
(§1) Firstly, sucked out the original medium when the cell coverage in the culture bottle had reached 80% ~ 90%. Secondly, added appropriate trypsin (0.25%) to digest the cells for 1~2 min until they became round. Mixed the equal volume of serum-containing medium to terminate the digestion.
Thirdly, use pipette to percuss cells and make them suspend. Then, sucked the cells into a 15 mL centrifuge tube and centrifuge them for 5 min. At last, dropped the supernatant, add 1~2 mL medium to suspend the cells, and cultivated them in the culture bottle.
The first step was to add suitable trypsin digestion cells and collected the cell suspension.
Centrifuged the suspension at 1000 rpm for 5 min in the tube, and then abandoned the supernatant.
Secondly, added cryoprotectant to the cell sediment and mixed them lightly until the cell density was 1×106~1×10^7/ml. Later, divided them into 1~1.5 ml per tube, tightened the cap and made a mark on surface including the cell code and the freezing date. In the end, cooled the cells in following order: room temperature→ 4℃ (20 min) → the freezer (30 min) → low temperature refrigerator (-30℃ for 1 h) →gaseous nitrogen (30 min) →the liquid nitrogen.
(§2) Cell proliferation measured by MTT
First of all, digested the cells and counted them. Added 100 μL cell suspension (3×10^4 /ml) into each hole of the 96 holes cell culture plate. Secondly, placed the 96 holes cell culture plate in a 5% CO2 culture box for 24 h at 37℃. Then, used the medium to dilute the drug into the desired working fluid […]

[2] = system: human normal hepatocytes (LO2); assay: MTT assay, inhibition (toxicity) of LO2 cell proliferation; assay type: cell-based; conditions: Hepatocyte, 72 h, read-out: inhibitory activity against LO2, IC50
Procedure: Preliminary in vitro screening results of the title compounds for antitumor activity against HepG2 (human hepatocellular carcinoma) and human normal hepatocytes (LO2) were determined by MTT assay (thiazolyl blue salt colorimetry) (see Figure 1 and Figure 2).
as §1
Thirdly, use pipette to percuss cells and make them suspend. Then, sucked the cells into a 15 mL centrifuge tube and centrifuge them for 5 min. At last, dropped the supernatant, add 1~2 mL medium to suspend the cells, and cultivated them in the culture bottle. […]
as §2
First of all, digested the cells and counted them. Added 100 μL cell suspension (3×10^4 /ml) into each hole of the 96 holes cell culture plate. Secondly, placed the 96 holes cell culture plate in a 5% CO2 culture box for 24 h at 37℃. Then, used the medium to dilute the drug into the desired working fluid concentration, added 100 μL per hole to the corresponding drug medium, and established a negative control group as well as a positive control group (paclitaxel, 20 ug/ml). Next, placed 96 holes cell culture plate at 37℃ and cultivated the cells in a 5% CO2 incubator for 72 h. After treating 96 holes board with MTT staining, estimated the OD value: a. Added 20 μL MTT (5 mg/ml) per hole, and cultivated cells in the box for 4 h. b. Discarded the supernatant, added 150 μL DMSO in each hole, and mixed them gently after treatment with shaker for 10 min. c. Under 490nm ultraviolet wavelength, read the OD value from ELISA.
Finally, figured up the inhibition rate of each group
*The inhibition rate (%) = (negative control group OD value - experimental group OD value) / negative control group OD value ×100%. […]
The next day, joined the corresponding drug-containing medium after the cells adhered. And established the negative control group at the same time. After 72 h, use 0.25% pancreatin (not contain EDTA) to digest the cells. Thirdly, applied PBS to scrub the cells (centrifuge them at 2000 rpm for 5min), and collected 5×10^5 cells. Then, used a volume fraction of 70% ethanol to fix the single cell suspension for 2 h (or overnight), and stored it at 4℃. Before washing, employed PBS to remove the fixative solution (if needed, filter cell suspension through 200 mesh). Added […] RNase A, and made it in water bath at 37℃ for 30 min. Later, placed it at 4℃ for 30 min without light. […]
Detection of apoptosis by Annexin-V FITC/PI double staining
Firstly, inoculated the logarithmic growth cells into the six-hole plate. […]

LO2 = system: LO2; parameters: method as in earlier work; conditions: LO2, 24 h; cited from earlier work
[3] = Homo sapiens, HepG2, 72 h, 72 h, MTT, read-out: inhibitory activity against HepG2, IC50

Work on `C/C=C\C=C\C/C=C\CCCCCCCc1cccc(O)c1O` [Compound 1, triene urushiol] yielded an IC50 ([1]; Homo sapiens, HepG2, 72 h, read-out: inhibitory activity against HepG2, IC50, 72 h, MTT) of less than 50 µM, an IC50 ([1]; read-out: inhibitory activity against HepG2, IC50, 72 h, MTT) of 28.6 µM and an IC50 [2] of 66.1 µM.
Work on `CC(C)C1=CC[C@H]2C(=C1)CC[C@@H]1[C@]2(C)CCC[C@@]1(C)C(=O)O` [Compound 5, Levopimaric Acid] yielded an IC50 [1, 3] of 39.5 µM, an inhibition at 0.585 µM ([1]; Homo sapiens, HepG2, 0.585 μM, 72 h, read-out: Inhibitory rate/%, anti-HepG2 by single drug) of 4.12% and an inhibition at 1.171 µM ([1]; Homo sapiens, HepG2, 1.171 μM, 72 h, read-out: Inhibitory rate/%, anti-HepG2 by single drug) of 5.45%. It also gave an inhibition at 2.343 µM ([1]; Homo sapiens, HepG2, 2.343 μM, 72 h, read-out: Inhibitory rate/%, anti-HepG2 by single drug) of 9.45%, an inhibition at 4.687 µM ([1]; Homo sapiens, HepG2, 4.687 μM, 72 h, read-out: Inhibitory rate/%, anti-HepG2 by single drug) of 13.8% and an inhibition at 9.375 µM ([1]; Homo sapiens, HepG2, 9.375 μM, 72 h, read-out: Inhibitory rate/%, anti-HepG2 by single drug) of 32.1%. It also gave an inhibition at 18.75 µM ([1]; Homo sapiens, HepG2, 18.75 μM, 72 h, read-out: Inhibitory rate/%, anti-HepG2 by single drug) of 44.6%, an inhibition at 37.5 µM ([1]; Homo sapiens, HepG2, 37.5 μM, 72 h, read-out: Inhibitory rate/%, anti-HepG2 by single drug) of 47.2% and an inhibition at 75 µM ([1]; Homo sapiens, HepG2, 75 μM, 72 h, read-out: Inhibitory rate/%, anti-HepG2 by single drug) of 73.4%. The inhibition at 150 µM ([1]; Homo sapiens, HepG2, 150 μM, 72 h, read-out: Inhibitory rate/%, anti-HepG2 by single drug) was 91.5% and the IC50 [2] was greater than 200 µM.
Work on `CC1C=CC(C/C=C\CCCCCCCc2cccc(O)c2O)C2(F)C(=O)OC(=O)C12F` (stereo not shown) [Compound 15] yielded an IC50 [1, 3] of 29.4 µM and an IC50 [2] greater than 200 µM.
In the case of `CC1C=CC(C/C=C\CCCCCCCc2cccc(O)c2O)C2(Cl)C(=O)OC(=O)C12Cl` (stereo not shown) [Compound 16], the IC50 ([1]; Homo sapiens, HepG2, 72 h, MTT, read-out: inhibitory activity against HepG2, IC50) is reported as 23.9 µM and the IC50 [2] is reported as greater than 200 µM.
In the case of `CC(=O)O[C@H]1C(=O)[C@@]2(C)[C@H]([C@H](OC(=O)c3ccccc3)[C@]3(O)C[C@H](OC(=O)[C@H](O)[C@@H](NC(=O)c4ccccc4)c4ccccc4)C(C)=C1C3(C)C)[C@]1(OC(C)=O)CO[C@@H]1C[C@@H]2O` [paclitaxel], the “IC50 on LO2” value (LO2) is given as 28.5 mg/L (≈ 33.4 µM).

Source: article PMC6214004, “Novel C15 Triene Triazole, D-A Derivatives Anti-HepG2, and as HDAC2 Inhibitors: A Synergy Study” (International Journal of Molecular Sciences, 2018)
